Data taken from patent US9937235B2, “Lipidated peptides as anti-obesity agents” (USTAV ORGANICKE CHEMIE A BIOCHEMIE AKADEMIE VED CR, V.V.I, priority 2012, dated 2018).
Where a SMILES comes first, the peptide text is derived from it. [ ]: non-standard residue; d: D form. The star is where a group is joined. Lauroyl = CCCCCCCCCCCC(=O)*; Decanoyl = CCCCCCCCCC(=O)*; Nle = CCCC[C@H](N)C(=O)O; Octanoyl = CCCCCCCC(=O)*

system: fasted C57BL/6 mice; assay: Food intake in fasted mice after SC administration; assay type: in vivo, mouse; details: fasted C57BL/6 mice, 5 mg/kg SC, 45 min
Method: Male C57BL/6 mice (An Lab, Prague 4) were bred in the accredited animal facility in the Institute of Organic Chemistry and Biochemistry, Czech Academy of Sciences, Prague, at the Institute of Molecular Genetics, Prague 4, at the temperature of 22±2° C. with access to food and water ad libitum. The day/night cycle was 12/12 hours (light turned on at 6:00 am). Animals were treated according to the Animal Protection Act (Act No. 246/1992). The males were fed standard chow diet St-1 (Mlýn Kocanda, Praha, Czech Republic) which contained 66% saccharides, 25% proteins and 9% lipids with a caloric value of 3.4 kcal/g.
The food was withdrawn 17 hours prior to injection of lipidated peptide and free access to water was maintained. The administration of saline, PrRP or lipidated analogs was performed either by SC injection at doses of 1-10 mg/kg (volume 0.2 ml/mouse), or by ICV using infusion pump (cannulae were inserted into the third brain ventricle 4 days before the experiment following the procedure of Maixnerová et al. (Maixnerová et al., 2011)). The single dose of peptide was 4 nmol/mouse (5 μl/mouse).
Fifteen minutes after the lipidated peptide administration, the mice were given pre-weighed food. The food was then weighed every 30 minutes for 5-10 hours. The administration of every dose was performed at least twice and one group of mice consisted of at least 6 mice. The results were presented as % of food intake as compared with the control group injected with saline.
Statistical evaluation was performed using program Graph-Pad Prism Software (San Diego, Calif., USA), and the one-way ANOVA with a subsequent Dunnettovým post-hoc test. The difference in food intake between mice injected with saline and mice injected with the examined peptide were considered statistically significant at P<0.05.

Structure (SMILES)	Food intake in mice (5 mg/kg SC) % saline-treated group (45 min) [%]
CCCCCCCC(=O)N[C@@H](CO)C(=O)N[C@@H](CCCNC(=N)N)C(=O)N[C@@H](C)C(=O)N[C@@H](Cc1c[nH]cn1)C(=O)N[C@@H](CCC(N)=O)C(=O)N[C@@H](Cc1c[nH]cn1)C(=O)N[C@@H](CO)C(=O)N[C@@H](CCCC)C(=O)N[C@@H](CCC(=O)O)C(=O)N[C@H](C(=O)N[C@@H](CCCNC(=N)N)C(=O)N[C@H](C(=O)N1CCC[C@H]1C(=O)N[C@@H](CC(=O)O)C(=O)N[C@H](C(=O)N[C@@H](CC(N)=O)C(=O)N1CCC[C@H]1C(=O)N[C@@H](C)C(=O)N[C@@H](Cc1c[nH]c2ccccc12)C(=O)N[C@@H](Cc1ccc(O)cc1)C(=O)N[C@H](C(=O)NCC(=O)N[C@@H](CCCNC(=N)N)C(=O)NCC(=O)N[C@H](C(=O)N[C@@H](CCCNC(=N)N)C(=O)N1CCC[C@H]1C(=O)N[C@H](C(=O)NCC(=O)N[C@@H](CCCNC(=N)N)C(=O)N[C@@H](Cc1ccccc1)C(N)=O)C(C)C)[C@@H](C)CC)[C@@H](C)O)[C@@H](C)CC)[C@@H](C)O)[C@@H](C)O [Analog 15] (Octanoyl-SRAHQHS[Nle]ETRTPDINPAWYTGRGIRPVGRF-NH2)	94
CCCCCCCCCC(=O)N[C@@H](CO)C(=O)N[C@@H](CCCNC(=N)N)C(=O)N[C@@H](C)C(=O)N[C@@H](Cc1c[nH]cn1)C(=O)N[C@@H](CCC(N)=O)C(=O)N[C@@H](Cc1c[nH]cn1)C(=O)N[C@@H](CO)C(=O)N[C@@H](CCCC)C(=O)N[C@@H](CCC(=O)O)C(=O)N[C@H](C(=O)N[C@@H](CCCNC(=N)N)C(=O)N[C@H](C(=O)N1CCC[C@H]1C(=O)N[C@@H](CC(=O)O)C(=O)N[C@H](C(=O)N[C@@H](CC(N)=O)C(=O)N1CCC[C@H]1C(=O)N[C@@H](C)C(=O)N[C@@H](Cc1c[nH]c2ccccc12)C(=O)N[C@@H](Cc1ccc(O)cc1)C(=O)N[C@H](C(=O)NCC(=O)N[C@@H](CCCNC(=N)N)C(=O)NCC(=O)N[C@H](C(=O)N[C@@H](CCCNC(=N)N)C(=O)N1CCC[C@H]1C(=O)N[C@H](C(=O)NCC(=O)N[C@@H](CCCNC(=N)N)C(=O)N[C@@H](Cc1ccccc1)C(N)=O)C(C)C)[C@@H](C)CC)[C@@H](C)O)[C@@H](C)CC)[C@@H](C)O)[C@@H](C)O [Analog 16] (Decanoyl-SRAHQHS[Nle]ETRTPDINPAWYTGRGIRPVGRF-NH2)	57
CCCCCCCCCCCC(=O)N[C@@H](CO)C(=O)N[C@@H](CCCNC(=N)N)C(=O)N[C@@H](C)C(=O)N[C@@H](Cc1c[nH]cn1)C(=O)N[C@@H](CCC(N)=O)C(=O)N[C@@H](Cc1c[nH]cn1)C(=O)N[C@@H](CO)C(=O)N[C@@H](CCCC)C(=O)N[C@@H](CCC(=O)O)C(=O)N[C@H](C(=O)N[C@@H](CCCNC(=N)N)C(=O)N[C@H](C(=O)N1CCC[C@H]1C(=O)N[C@@H](CC(=O)O)C(=O)N[C@H](C(=O)N[C@@H](CC(N)=O)C(=O)N1CCC[C@H]1C(=O)N[C@@H](C)C(=O)N[C@@H](Cc1c[nH]c2ccccc12)C(=O)N[C@@H](Cc1ccc(O)cc1)C(=O)N[C@H](C(=O)NCC(=O)N[C@@H](CCCNC(=N)N)C(=O)NCC(=O)N[C@H](C(=O)N[C@@H](CCCNC(=N)N)C(=O)N1CCC[C@H]1C(=O)N[C@H](C(=O)NCC(=O)N[C@@H](CCCNC(=N)N)C(=O)N[C@@H](Cc1ccccc1)C(N)=O)C(C)C)[C@@H](C)CC)[C@@H](C)O)[C@@H](C)CC)[C@@H](C)O)[C@@H](C)O [Analog 17] (Lauroyl-SRAHQHS[Nle]ETRTPDINPAWYTGRGIRPVGRF-NH2)	22
